Test results: patent publication EP0497921B1, “METHOD FOR INHIBITING ENZYMATIC SYNTHESIS OF NUCLEIC ACIDS USING ISOPSORALENS” (ISAACS, Stephen T., priority 1989, dated 1991)
Converted amounts (≈) assume the structure as drawn. Read-outs that look alike come from different tables or passages of the source.

Columns and labels:
[1] = tested on: Hind-III restriction fragments of lambda DNA; assay: Photobinding of BIODMIP to lambda DNA fragments; format: binding; conditions: 100 µg/ml plus 50 µg additional; two 30 minute irradiations at room temperature with the PTI device
Method: BIODMIP (100 µg/ml) was irradiated for 30 minutes at room temperature with the PTI device in 500 µl of 1 x TE buffer with 2 µg of Hind-III restriction fragments of lambda DNA. After the first irradiation, the mixture was transferred to a new tube containing 50 µg additional BIODMIP and this was incubated at 37°C for one hour to dissolve the compound. This was followed by a second 30 minute irradiation at room temperature with the PTI device. It was observed that, under these conditions BIODMIP added to the DNA at a ratio of 1 covalently bound BIODMIP per 20 base pairs.

[2] = tested on: DNA polymerase I from E. coli. B; conditions: cited from earlier work; for template activity lost by modified DNA: C.M. Ou et al., covalently modified DNA
[3] = water; cited from earlier work
human placental DNA = assay: PCR amplification with unirradiated AMDMIP and DMSO co-solvent; format: biochemical; conditions: no AMDMIP, average of duplicates, 139,000 at 0% DMSO
Method: In this example, the effect of DMSO on PCR amplification in the presence of high concentrations of sterilizing compound (AMDMIP) was investigated. Samples were prepared for PCR which contained 1 µg of human placental DNA either with or without (unirradiated) AMDMIP (200 µg/ml). The samples were amplified 30 cycles under standard PCR conditions in the presence of 0%, 1%, 5% or 10% DMSO. The reaction mix contained α-^32P-dCTP. Following amplification, the samples were analyzed by PAGE (data not shown).

Taq I DNA polymerase = assay: Primer extension on site-specific 71-mer monoadduct template; format: biochemical, Thermus aquaticus; conditions: 55°C; 0.5, 1.0, 5.0 mins; PAGE, autoradiography
Method: In this experiment, monoadducted 71-mers (as well as unmodified 71-mers) were used in template-dependent enzymatic extension. AMIP, AMDMIP, and MIP 71-mer monoadducts were made as in Example 17. Extension was carried out as in Example 18 except that in this experiment, Taq I DNA polymerase, a thermostable DNA polymerase isolated from Thermus aquaticus (Stratagene, Inc., La Jolla, CA) was assessed for its ability to read past isopsoralens.
The reaction mixture was in 80 µl total volume and comprised 1 x Taq buffer, 200 µM each of dNTP's, 0.05 units of Taq per µl of reaction volume; 1 x 10^-9 M in 71-mer MA; 1 x 10^-8 M in ^32P-labelled SK-39. Each reaction was set up with everything except Taq polymerase. The samples were initially heated to 95°C for 5 mins, then incubated at 55°C for 3 mins. The extension reaction was initiated by addition of Taq polymerase. At the indicated time points (0.5, 1.0, 5.0 mins), 20 µl of the reaction mix was removed to a tube containing 1 µl of 0.5 M EDTA to stop the reaction. All products were analyzed on a 20% polyacrylamide, 7 M urea gel followed by autoradiography.
This experiment investigated whether blocking of Taq polymerase by monoadducts is complete or whether monoadducts can be bypassed by the enzyme. In order to view the process of bypass synthesis, it is necessary to cycle the extension reaction of the primer with the 71-mer templates. Cycling in this case consists of mixing the primer with the 71-mer template, adding Taq polymerase and appropriate reagents, extending, heating to induce strand separation, reannealing of the primer to the 71-mer template, extending again, and subsequent stand separation. This process can be repeated as necessary. During this process, only the complement of the 71-mer template is being synthesized. It is accumulating in a linear fashion with the number of thermal cycles (in contrast to PCR where both strands are being synthesized and accumulate geometrically).
The templates and reaction conditions were as in Example 19 above except that three samples were used for each monoadduct and each sample was tested under different conditions: • Samples (1): one sample for each monoadduct was used to carry out extension at 55°C as in Example 43; • Samples (2): one sample for each monoadduct was used to carry out extension by the following series of steps: denaturing at 95°C; incubating for 30 seconds at 55°C; adding Taq polymerase for 3 minutes at 550C; cooling the reaction for 1 minute at 7°C; stopping the reaction with EDTA for one minute at 95°C: • Samples (3): one sample for each monoadduct was used to carry out extension by repeating the following series of steps nine times: denaturing at 95°C; incubating for 30 seconds at 55°C; adding Taq polymerase for 3 minutes at 55°C; cooling the reaction for 1 minute at 7°C. At the end, the reaction is stopped with EDTA for one minute at 95°C.
To investigate this question further, a new 5-MIP monoadducted 71-mer was prepared by repurification of the HPLC purified 5-MIP monoadducted 15-mer by PAGE. In this way, more of the non-monoadducted 15-mer was removed prior to ligation. The purified 71-mer was then used as template in an extension experiment as described in Example 20. After 10 cycles, there was still evidence of extension product (Figure 34).
Monoadducted 71-mer was constructed as described, but for HMT. Extension was carried out and analyzed as before on PAGE. […] Full length 71-mer is not made and a shorter strand corresponding to the position of the HMT adduct was made.

[4] = Solubility of photoreactive compounds in 1 X TE (optical density of filtrate); format: physicochemical; conditions: nd = not detectable (solubility was less than 1 µg/ml)
Method: The solubilities of AMIP, AMDMIP, DMIP, MIP and isopsoralen (IP) were determined experimentally according to the scheme set forth in Figure 5. To perform the solubility measurement, it was first necessary to establish known optical densities for a 1 µg/ml solution of each compound. These were determined by preparing either ethanolic or aqueous stocks of each compound at known concentrations in 1 x TE, then measuring the optical density of each solution. From this information, the absorption of a 1 µg/ml solution was computed. Alternatively, the extinction coefficient may be thus determined and used in the same fashion. In this manner, the following absorption data was collected:
Following this step, undissolved compound was removed by filtration using a 0.2 u nylon-66 syringe filter (Arco LC13; Gelman). The concentration of the remaining soluble compound was then determined by measuring the optical density of the filtrate and computing the solubility from the known optical density of a 1 µg/ml solution of that compound. The solubility of the compounds was thus determined to be as follows: […]

Taq polymerase = Taq polymerase (Thermus aquaticus, UniProt P19821); assay: Primer extension on 71-mer after random addition of compound or addition of photoproduct; format: biochemical
From the text: In this experiment, the ability of AMIP, AMDMIP and MIP to block replication of 71-mer is investigated by randomly adding each compound to the 71-mer. of course, addition may only be random in the sense that one or more adducts may be formed with any one strand of nucleic acid. The actual placement of the isopsoralen may be governed by preferential binding at particular sites (e.g. A:T). In addition to blockage by random adducts, photoproducts of the various isopsoralens may be providing an inhibitory effect. No attempt to separate the effects of photoproduct from the effects of covalent adducts on the 71-mer template was made in this series of experiments.
In these experiments, the 71-mer template (10^-9 M) was primed with ^32P-SK-39 (10^-8) and extended with Taq polymerase in a total volume of 20 µl. The dNTP concentration was 200 µM. In the control samples, the 71-mer, the primer, and the dNTPs were mixed in Taq buffer in a volume of 18 µl. These samples were initially denatured at 95°C for 5 minutes, followed by equilibration at 550C for 3 minutes. Taq enzyme was then added (0.5 units) and the extension reaction was carried out for 5 minutes at 55°C. The reaction was stopped by making the solution 10 mM in EDTA. In another set of samples, the 71-mer in 10 µl was mixed with either AMIP (200 µg/ml), AMDMIP (200 µg/ml), or MIP (60 µg/ml). Half of these samples were irradiated for 15 minutes on the CE-I device at 25°C. The other half was kept in the dark as controls. These samples were then mixed with the primer and dNTPs as before, and were subjected to the same thermal profile and extension reactions as the samples that were described earlier. The results were examined by PAGE. The extended product bands were identified by autoradiography, excised and counted (data not shown).
In this experiment, the ability of two different Phenylazide derivatives (see Table 1), photobiotin (Vector Labs) and monoazide ethidium chloride, to block replication of 71-mer was investigated by randomly adding each compound to the 71-mer. Again, addition may only be random in the sense that one or more adducts may be formed with any one strand of nucleic acid. The actual placement of these compounds may be governed by preferential binding at particular sites (e.g. A:T). In addition to blockage by random adducts, there may be inhibition by photoproducts. As in Example 23, no attempt was made to separate the impact of photoproducts from that of covalent binding of photoreactive compound on the 71-mer.
The two compounds, photobiotin and monoazide ethidium chloride, have different spectral characteristics. To activate these compounds, two different wavelength regions were selected using a single light source (General Electric Sunlamp, Model RSM, 275 watt). The light source was positioned 10 cm above uncapped Eppendorph tubes which contained samples to be irradiated. The samples were kept on ice during irradiation. A pyrex dish was placed between the lamp and the samples.
For samples containing photobiotin, 2.5 cm of water was added to the pyrex dish to help remove some of the infrared radiation. The samples were irradiated for 15 minutes.
For samples containing monoazide ethidium chloride, wavelengths less than 400 nm were filtered out by using 2.5 cm of an aqueous solution of 2.9 M NaNO2. Removal of short wavelengths (i.e. wavelengths shorter than 400 nm) is necessary for the use of monoazide ethidium chloride. Irradiation of this compound with shorter wavelengths results in conversion to non-active forms (data not shown). Wavelengths below 400 nm are therefore undesirable for use with this compound.
In this experiment, the 71-mer template (2 x 10^-9 M) in 10 µl was mixed with either no photoreactive compound, photobiotin (6 x 10^-6 M), or monoazide ethidium (1.4 x 10^-3 M). Half of each of these samples were irradiated on ice for 15 minutes with wavelengths appropriate for each specific photoreactive compound. […]

HIV 115-mer = assay: PCR with pre-irradiated photobiotin or monoazide ethidium chloride; format: biochemical
Method: In this experiment, photobiotin and monoazide ethidium chloride were tested as PCR sterilization reagents. The temporal steps were performed to examine photoproduct effects (if any). Solutions of photobiotin and monoazide ethidium chloride were made up in 1 x Taq buffer. Concentrations of photobiotin ranged form 7 x 10^-4 M to […]: concentrations of the monoazide ethidium chloride ranged from 3 x 10^-9 M to 3 x 10^-10M. […] Each compound solution was divided into two parts: One part was irradiated under a GE sunlamp through a pyrex filter (300nm cut-off); the other half was irradiated under a GE sunlamp through a 2.9 M NaNO2 liquid filter (400 nm cut-off). Irradiations were carried out on ice for 15 minutes. After irradiation, aliquots of each tube were carried over into tubes containing PCR reagents and target (HIV 115-mer); PCR was then carried out for 30 cycles in the presence of α-^32P-dCTP. After amplification aliquots were analyzed on 12% acrylamide/8M urea gels.

Taq polymerase, sequence (P19821 whole entry): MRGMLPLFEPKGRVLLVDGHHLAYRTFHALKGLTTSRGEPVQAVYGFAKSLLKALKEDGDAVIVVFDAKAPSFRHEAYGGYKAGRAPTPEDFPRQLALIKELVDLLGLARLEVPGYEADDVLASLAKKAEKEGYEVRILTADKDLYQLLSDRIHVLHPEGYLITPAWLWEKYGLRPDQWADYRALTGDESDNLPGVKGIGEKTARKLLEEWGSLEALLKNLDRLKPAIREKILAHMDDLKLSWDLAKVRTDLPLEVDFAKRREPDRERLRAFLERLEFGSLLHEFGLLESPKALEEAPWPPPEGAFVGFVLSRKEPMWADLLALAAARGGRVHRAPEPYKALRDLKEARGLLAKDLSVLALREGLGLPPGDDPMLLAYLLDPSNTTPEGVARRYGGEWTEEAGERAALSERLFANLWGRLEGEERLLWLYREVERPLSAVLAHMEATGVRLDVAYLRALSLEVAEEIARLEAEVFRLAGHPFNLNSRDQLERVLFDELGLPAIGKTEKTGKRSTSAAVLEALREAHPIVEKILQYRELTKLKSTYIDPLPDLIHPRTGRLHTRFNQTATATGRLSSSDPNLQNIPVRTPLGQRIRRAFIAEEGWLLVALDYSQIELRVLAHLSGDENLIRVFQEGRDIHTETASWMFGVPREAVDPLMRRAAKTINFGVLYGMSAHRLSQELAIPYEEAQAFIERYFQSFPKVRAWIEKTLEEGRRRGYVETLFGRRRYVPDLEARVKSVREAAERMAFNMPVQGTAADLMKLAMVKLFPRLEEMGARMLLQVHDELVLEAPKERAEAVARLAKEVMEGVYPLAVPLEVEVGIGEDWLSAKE

For Cc1oc2ccc3c(C)cc(=O)oc3c2c1CN(C)CCCCCCN(C)C(=O)CCCCCNC(=O)CCCC[C@@H]1SC[C@@H]2NC(=O)N[C@@H]21 [BIODMIP, 4'-N-[N,N'-dimethyl-N'-(6-{biotinamido} -hexanoate)-1,6-hexanediamine] -methyl-4,5'-dimethylisopsoralen], the “ratio of 1 covalently bound BIODMIP per n base pairs” value [1] was 20 base pairs.

For COc1c2occc2cc2ccc(=O)oc12 [Compound 8-MOP, 8-methoxypsoralen], the “template activity lost by modified DNA” value [2] is given as 97%.

In the case of COc1cc(OC)c2ccc(=O)oc2c1 [DMC, 5,7-dimethoxycoumarin], the “template activity lost by modified DNA” value [2] is listed as 50%.

For Cc1cc2c(ccc3c(C)cc(=O)oc32)o1 [DMIP, 4,5'-Dimethylisopsoralen], the maximum aqueous solubility [3] is listed as 8 µg/mL.

For C[S+](C)[O-] [DMSO, dimethyl sulfoxide], the “CPM of product bands” value (human placental DNA; 1% DMSO) was 137,000 CPM, the “CPM of product bands” value (human placental DNA; 5% DMSO) was 94,000 CPM and the “CPM of product bands” value (human placental DNA; 10% DMSO) was 76,000 CPM.

In the case of Cc1oc2c(C)c3oc(=O)cc(C)c3cc2c1CO [HMT, 4'-hydroxymethyl-4,5',8-trimethylpsoralen], the “Taq polymerase extension on 71-mer monoadduct template” value (Taq I DNA polymerase) is listed as “stop Taq polymerase”, the “inhibition of E. Coli polymerase I by covalently bound monoadducts” value ([2]; Piette and Hearst 1983, nick-translating a double-stranded template) is listed as “not inhibited” and the “inhibition of E. Coli polymerase I by covalently bound monoadducts” value ([2]; Piette and Hearst 1985, single-stranded template (bacteriophage DNA)) is listed as “inhibited”.

With O=c1ccc2ccc3occc3c2o1 [IP, isopsoralen] the “Solubility in 1 X TE” value [4] was 2 µg/mL (≈ 10.7 µM).

With CN(CCCNC(=O)CCCC[C@@H]1SC[C@@H]2NC(=O)N[C@@H]21)CCCNc1ccc(N=[N+]=[N-])cc1[N+](=O)[O-] [photobiotin, reference compound] the extension after irradiation (Taq polymerase; photobiotin (6 x 10^-6 M), irradiated on ice for 15 minutes, GE sunlamp) was “inhibition only after irradiation” and the “concentration at which pre-irradiated compound shut down PCR” value (HIV 115-mer; highest concentration used, 115-mer amplified at all lower concentrations) was 700 µM.

In the case of “monoazide ethidium chloride [reference compound]”, the “extension, dark control” value (Taq polymerase; photobiotin (6 x 10^-6 M) or monoazide ethidium (1.4 x 10^-3 M), kept in the dark) is reported as “inhibition of extension” and the “inhibition of PCR by pre-irradiated compound” value (HIV 115-mer; irradiated on ice 15 minutes under GE sunlamp before addition to PCR, 30 cycles) is reported as “does not inhibit PCR”.
